Assay results as given in patent US12084415B2, “Biomolecule-polymer-pharmaceutical agent conjugates for delivering the pharmaceutical agent” (Massachusetts Institute of Technology, priority 2021, dated 2024).

Test system: BT474 xenograft tumor
Assay: Antitumor efficacy in BT474 xenograft tumor model
Conditions: for tumor volume at day 30: 3 doses
[1] = PROTAC (ARV771) payload, 3 doses once a week

Protocol: The antitumor efficacy was monitored thorough the measurement of tumor volume size.
We used the ABC platform for antibody targeted delivery of PROTAC to tumors for cancer therapy. We chose ARV771 as the payload. We used PROTAC-ABC (ABC_ARV771) to perform in vivo anti-cancer study. The HER2 overexpressed BT474 xenograft mice model was also used for this study. 6 different treatments were performed on mice bearing ˜50 mm^3 volume tumor. 3 doses for treatment were performed once a week.

Compound	tumor volume at day 30 (PROTAC (ARV771) payload)	tumor volume [1]	tumor volume (one dose injection, comparison with Kadcyla)
Cc1ncsc1-c1ccc([C@H](C)NC(=O)[C@@H]2C[C@@H](O)CN2C(=O)[C@@H](NC(=O)COCCCOCCNC(=O)C[C@@H]2N=C(c3ccc(Cl)cc3)c3c(sc(C)c3C)-n3c(C)nnc32)C(C)(C)C)cc1 [ARV771]	no therapeutic effects	little therapeutic effects	–
Cc1sc2c(c1C)C(c1ccc(Cl)cc1)=N[C@@H](CC(=O)Nc1ccc(OCCOCCOCCOCCNc3cccc4c3C(=O)N(C3CCC(=O)NC3=O)C4=O)cc1)c1nnc(C)n1-2 (some centres unmarked) [ARV825]	no therapeutic effects	little therapeutic effects	–
ado-trastuzumab emtansine [ADC]	–	–	good anticancer efficiency
